Test results as given in US20060276525A1, “Processes of preparing highly pure telmisartan form A, suitable for pharmaceutical compositions” (priority 2005, published 2006).
Like-named read-outs stand apart in the source and are kept apart here.

Experiments:
Format in all cases: physicochemical
[1] = Average particle size measurement (Malvern Mastersizer 2000, particle size distribution); settings: for Particle size distribution D(v,0.1) / Particle size distribution D(v,0.2) / Particle size distribution D(v,0.8) / Particle size distribution D(v,0.95) / Particle size distribution D(v,0.98) / Particle size distribution D(v,1.0) / Particle size distribution D(v,0.5) / Particle size distribution D(v,0.9): carrier liquid water; for Particle size distribution D(v,0.5): size for 50% of the particles; for Particle size distribution D(v,0.9): size for 90% of the particles; for D(V, 0.9): in µm (unit assumed)
Protocol: Average Particle Size Measurement: Particle size was measured by Malvern model Mastersizer 2000, equipped with Malvern Hydro G circulation cell. Carrier: liquid:water. System description: Measuring range: from 0.02-2000 μm. Accuracy: 1% on the Dv50 Light sources: Red light-helium neon laser. Blue light-solid state light source.

[2] = Bulk density (tapped density tester VanKel 50-2300)
Protocol: Bulk Density: Bulk density was measured using tapped density tester dual-platform model VanKel 50-2300 (Varian Inc.). System specifications. Speed: nominal rate of 300 taps per minute, Accuracy: Actual setting±1 tap, Drop height: 14±2 mm. Platform rotation: 5-15 rotations/minute.

[3] = Flowability / electrostatic charging of the ground material; settings: ground by conventional mill
[4] = listed as Telmisartan form A, obtained by crystallization from DMSO
[5] = Sonicated material with no milling
[6] = listed as Telmisartan form A, obtained by crystallization from water

Compound | Particle size distribution D(v,0.1) [1] [μ] | Particle size distribution D(v,0.2) [1] [μ] | Particle size distribution D(v,0.8) [1] [μ] | Particle size distribution D(v,0.95) [1] [μ] | Particle size distribution D(v,0.98) [1] [μ] | Particle size distribution D(v,1.0) [1] [μ] | Particle size distribution D(v,0.5) [1] [μ] | Particle size distribution D(v,0.9) [1] [μ] | further results
CCCc1nc2c(C)cc(-c3nc4ccccc4n3C)cc2n1Cc1ccc(-c2ccccc2C(=O)O)cc1 [Example 1, Telmisartan] | 1.60 | 2.25 | 11.46 | 22.21 | 29.03 | 52.87 | 4.98 | 16.78 | Particle size distribution D(v,0.5) [1, 4]: about 5 μ; Particle size distribution D(v,0.9) [1, 4]: about 17 μ; Bulk density [2]: about 0.3 g/ml; Bulk density [2, 4]: about 0.3 g/ml; Flowability of ground material [3]: free flowing crystalline powder that does not tend to gain electrostatic charge upon grinding
CCCc1nc2c(C)cc(-c3nc4ccccc4n3C)cc2n1Cc1ccc(-c2ccccc2C(=O)O)cc1 [Example 4, Telmisartan] | 1.08 | 1.45 | 6.04 | 12.07 | 16.13 | 33.57 | 2.83 | 8.97 | Particle size distribution D(v,0.5) ([1]; listed as Telmisartan form A, obtained by crystallization from DMF): less than 3 μ
CCCc1nc2c(C)cc(-c3nc4ccccc4n3C)cc2n1Cc1ccc(-c2ccccc2C(=O)O)cc1 [Example 7, Telmisartan] |  |  |  |  |  |  |  |  | D(V, 0.1) ([1]; Ground material): 0.7 µm; D(V, 0.5) ([1]; Ground material): 3.3 µm; D(V, 0.9) ([1]; Ground material): 19.1; D(V, 0.1) [1, 5]: 0.8 µm; D(V, 0.5) [1, 5]: 8.1 µm; D(V, 0.9) [1, 5]: 24.7; D(V, 0.1) ([1]; Un-milled material): 51.4 µm; D(V, 0.5) ([1]; Un-milled material): 245 µm; D(V, 0.9) ([1]; Un-milled material): 578.2
CCCc1nc2c(C)cc(-c3nc4ccccc4n3C)cc2n1Cc1ccc(-c2ccccc2C(=O)O)cc1 [Example 2, Telmisartan] | 0.35 | 0.85 | 11.90 | 23.03 | 30.08 | 52.871 | 4.33 | 17.48 | Particle size distribution D(v,0.5) [1, 6]: about 4.3 μ; Particle size distribution D(v,0.9) [1, 6]: about 17.5 μ; Bulk density [2, 6]: about 0.22 g/ml
